Reference: article PMC9332204, “Study of Novel Peptides for Antimicrobial Protection in Solution and on Cotton Fabric” (Molecules, 2022)

Legend:
[1] = test system: replication of HAdV-5 in HEp-2 cells; assay: Antiviral activity assay, CPE inhibition; type: cell-based; settings: Human adenovirus sp., HEp-2, read-out: IC50, antiviral activity on the replication of HAdV-5
Experimental: For checking the viral load, the antiviral screening based on the viral yield reduction technique was used. The cytopathic inhibition assay (CPE) utilizes 100 CCID50 loading in 0.1 mL of a monolayer of confluent cells in 96-well plates. After 1 h of virus adsorption, the extract was added in various concentrations, and cells were incubated for 48 h at 37 °C. The viable cells were stained according to the neutral red uptake procedure and the percentage of CPE inhibition for each concentration of the test sample was calculated using the following formula: % CPE = [ODtest sample − ODvirus control]/[ODtoxicity control − ODvirus control] × 100. The concentration of the material inhibition 50% of viral replication when compared to the virus control was defined as the 50% inhibitory concentration (IC50). The ratio CC50/IC50 was calculated to evaluate the selectivity index (SI).

[2] = test system: B. cereus; assay: Disc test on agar medium; type: cell-based, Bacillus cereus; settings: discs, gentamicin disc 10 µg
Experimental: (§1) Initially, the compounds were tested on an agar medium using commercial discs with gentamicin (10 µg) as a standard against B. cereus and P. aeruginosa used as model bacterial strains. As a result, no inhibition zones were observed around the discs with the compounds against both tested strains. With gentamicin, zones (mm in diameter) of 15 mm against B. cereus, and 12 mm against P. aeruginosa, were measured.
(§2) The antibacterial activity of the investigated compounds was tested against Gram-positive Bacillus cereus and Gram-negative Pseudomonas aeruginosa used as model strains (Collection of the Institute of Microbiology, Bulgarian Academy of Sciences). Microbial cultures were maintained at 4 °C on meat-peptone agar (MPA) slants and transferred monthly.

[3] = test system: P. aeruginosa; assay: Disc test on agar medium; type: cell-based, Pseudomonas aeruginosa; settings: discs, gentamicin disc 10 µg
Experimental: as §1, §2

Question: With `NC(=O)c1ncn([C@@H]2O[C@H](CO)[C@@H](O)[C@H]2O)n1` [Ribavirin] as the compound, how does the IC50 [1] read?
Answer: 115 µM

Question: With `CNC(C)C1CCC(N)C(OC2C(N)CC(N)C(OC3OCC(C)(O)C(NC)C3O)C2O)O1` (stereo not drawn) [gentamicin] as the compound, how does the “inhibition zone (mm in diameter)” value [2] read?
Answer: 15 mm

Question: What about the “inhibition zone (mm in diameter)” value [3] of the same compound?
Answer: 12 mm
